Consider eight molecules from patent US6605426B1, “Compounds, methods of screening, and in vitro and in vivo uses involving anti-apoptotic genes and anti-apoptotic gene products” (priority 1998, dated 2003).

Residues, ends and D or L forms follow the SMILES beside them. *: point of attachment. Cbz = O=C(OCc1ccccc1)*; CH2F = FC*

What all share (format): cell-based, human
In one assay the test system is HeLa cells. Description: Transient transfection apoptosis assay in HeLa cells (anti-Fas antibody+CHX or TNF-α+CHX). The settings on record: for protection of HeLa cells at very low plasmid concentration: 0.1% to 1% of the total DNA transfected, mixed with control vector, anti-Fas antibody+CHX; for β-gal levels after anti-Fas antibody+CHX treatment: plasmids diluted several hundred fold, β-gal marker plasmid. How it is done:
Tumor necrosis factor receptor 1 (TNF-R1)-mediated apoptosis was induced by exposure of HeLa and MRC-5 cells to tumor necrosis factor-α (TNF-α) (Sigma, 10-60 ng/mL)+CHX (10-30 μg/mL). Fas-mediated apoptosis was induced by exposure of cells to an anti-Fas antibody (Coulter, 7C11 antibody at 0.2-4 μg/mL)+CHX (10-30 μg/mL). The degree of cell death was determined by the visual scoring of surviving cells, in representative fields, under a phase microscope. A similar degree of cell death occurred in fibroblasts when examined 5 to 28 h after the start of exposure, or a similar degree of cell death occurred in HeLa cells when examined 9-28 h after the start of exposure. Further, a similar degree of cell death for a given reagent was produced when any concentration within the range indicated above was used.
The degree of cell death in cells transfected with an indicator plasmid expressing E. coli β-galactosidase was determined by either a β-galactosidase ELISA (Boehringer Mannheim), in accordance with the manufacturer's recommendations, or by visually scoring, under a microscope, positive blue cells, expressing β-galactosidase, after staining them with X-gal.
HeLa cells were transiently co-transfected with an expression plasmid vector, pME18S, carrying a polynucleotide sequence encoding IE1 or IE2 (FIG. 5, “IE1” and “IE2,” respectively), and a vector carrying the β-galactosidase gene (pCMVβ, Clontech). As a positive control, HeLa cells were transiently co-transfected with pCMVβ and a vector carrying a polynucleotide sequence encoding an anti-apoptotic polypeptide, such as the adenovirus E1B 19K or baculovirus p35.
Expression of IE1 (approx. 72 kDa) and IE2 (approx. 86 kDa) in the transfected HeLa cells was confirmed by Western blot analysis, by immunofluorescence visually examined under a fluorescence microscope, and by transactivation activity which led to an elevation of the vector-CMV-promoter-driven β-galactosidase expression which was increased 2- to 5-fold, as measured by a β-galactosidase ELISA (data not shown). Apoptosis was induced by incubating the transfected cells for 24 h with either TNF-α+CHX, or anti-Fas antibody+CHX. The surviving cells were stained with X-gal, a chromogenic substrate of β-galactosidase, and then the blue-stained cells were scored (FIG. 5).
To identify HCMV genes that can suppress apoptosis induced by Fas-ligation, the present inventors established a transient transfection assay in HeLa cells. The HeLa cells can be transfected at much higher efficiency than MRC-5 cells and are similar in their sensitivity towards anti-Fas antibody and TNF-α treatment. Enhanced survival of HeLa cells following anti-Fas antibody+CHX treatment was detected by elevated β-galactosidase (β-gal) levels produced by a transfected β-gal marker plasmid.
The deletion mutants were transiently expressed in HeLa cells, cultured in DMEM supplemented with 10% fetal bovine serum, and assayed for their ability to block Fas- or TNF-R1-mediated apoptosis. Transfections and apoptosis assays were performed as previously described (Goldmacher et al., 1999). Briefly, cells were transiently transfected with the expression vectors (purified with a Qiagen plasmid purification kit) using SuperFect transfection reagent (Qiagen) in accordance with the manufacturer's protocol. After 24 hours, cells were exposed to anti-Fas 7C11 antibody (Coulter, 0.5 μg/ml)+cyclohexamide (Sigma, 10 μg/ml) for 24 hours.
A genomic DNA library was cloned into pZeoSV2(+) plasmid (Invitrogen). Ten cosmids, pCM1007, pCM1015, pCM1017, pCM1029, pCM1035, pCM1039, pCM1040, pCM1052, pCM1058, and pCM1072, covering the AD169 genome (Fleckenstein et al., 1982, which is incorporated herein by reference), and pON2601 Toledo cosmid (Cha et al., 1996, which is incorporated herein by reference) containing unique HCMV sequences, were mixed in equal amounts and partially digested with Sau3AI (New England Biolabs, Beverly, Mass.). […]

In assay [1] the test system is Fas-mediated apoptotic signaling in HeLa cells. The assay is described as follows: Western blot of Fas-mediated apoptotic signaling events in HeLa clones. How it is done:
Cells were trypsinized, washed in Tris buffered saline, resuspended in a lysis buffer (150 mM NaCl, 5 mM EDTA, 50 mM Tris.HCl pH 8.0, 1% Triton X-100), freshly supplemented with phenylmethylsulfonyl fluoride (0.1 mM), leupeptin ([…]) and pepstatin (1 μg/mL), incubated on ice for 30 minutes, and centrifuged at 16,000 g for 15 minutes, at 4° C. Cytochrome c and procaspase 9 were detected in S-1 00 fractions of cells (Li et al., 1997, which is incorporated herein by reference).
The intracellular polypeptides were detected by Western blot analysis. Samples containing protein were electrophoretically resolved under reduced conditions, on Laemmli SDS-PAGE (Novex), after equal amounts of protein were loaded per well of the gel, detected using a standard Western blot protocol and a luminol-based ECL Western Blotting system (Amersham). The following antibodies were used in the Western blot analysis: anti-human Bid C-20 (Santa Cruz Biotechnology), 5F7 anti-human caspase 8 (Upstate Biotechnology), C210 anti-PARP (Biomol), 7H8.2C12 anti-cytochrome c (Pharmigen), B40 anti-human caspase 9 (Pharmigen), FITC-anti-mouse IgG (Sigma), HRP-anti-mouse IgG-F, (Pierce), HRP-anti-mouse IgG2b (Boehringer Mannheim), HRP-anti-rabbit IgG, and HRP-anti-mouse Ig (Amersham).
The impact of pUL37S on biochemical events involved in Fas-mediated apoptosis was examined by comparing control HeLa/pcDNA3 cells, which are sensitive to anti-Fas antibody plus CHX, to HeLa clones expressing either pUL37S or cellular Bcl-xL, both of which are resistant to Fas-mediated apoptosis. Ligation of Fas triggers the recruitment and activation of caspase 8 through the adapter molecule FADD (Ashkenazi et al., 1998). This process was not impaired by pUL37S since pro-caspase 8 was processed in pUL37S-expressing cells similar to its processing in either Bcl-xL-expressing cells, or control cells within 4 h of the exposure to anti-Fas antibody plus CHX, but not CHX alone (FIG. 16A). Fas-signaling is connected to mitochondrial events in apoptosis through Bid, a pro-apoptotic BH3 polypeptide that is proteolyzed by caspase 8 and subsequently translocates to mitochondria where it triggers cytochrome c release (Li et al., 1998; Lu et al., 1998).
(In general: A western blot detects proteins with antibodies after separation by electrophoresis.)

In another assay the test system is MRC-5 cells. The settings on record: for cell death of MRC-5 cells: within the first 24 h of exposure, anti-Fas and TNF-α only in the presence of CHX, phase microscope. As to the method:
Tumor necrosis factor receptor 1 (TNF-R1)-mediated apoptosis was induced by exposure of HeLa and MRC-5 cells to tumor necrosis factor-α (TNF-α) (Sigma, 10-60 ng/mL)+CHX (10-30 μg/mL). Fas-mediated apoptosis was induced by exposure of cells to an anti-Fas antibody (Coulter, 7C11 antibody at 0.2-4 μg/mL)+CHX (10-30 μg/mL). The degree of cell death was determined by the visual scoring of surviving cells, in representative fields, under a phase microscope.
The time-course of apoptosis was also analyzed by examining the expression of phosphatidylserine on the cell surface, as detected with FITC-labeled Annexin V, and by a dye-exclusion test using propidium iodide. These two tests were performed with an ApoAlert Annexin V Apoptosis kit (Clontech) in accordance with the manufacturer's recommendations, on a flow cytometer (FACScan, Becton-Dickinson).
These experiments were performed on MRC-5, a normal human fibroblast cell line which can be productively infected by HCMV in cell culture. The present inventors first examined whether infection of cells with HCMV alters the cell's sensitivity to Fas- or TNF-R1-mediated apoptosis.

The subject of assay [2] is HCMV-infected MRC-5 cells. Description: Apoptosis resistance of HCMV-infected MRC-5 cells in presence of viral DNA polymerase inhibitors. The settings on record: concentration sufficient to inhibit viral replication; challenge two days later with anti-Fas antibody+CHX or TNF-α+CHX. The source says:
To discriminate between these two mechanisms, MRC-5 cells were infected with HCMV in the presence (or absence) of inhibitors of viral DNA polymerase, such as phosphonacetic acid or gancyclovir (Huang, 1975; Crumpacker, 1996) which prevent the expression of the late genes of HCMV in the host cell (Mocarski, 1996).
MRC-5 cells uninfected (FIG. 3A) or infected with HCMV (FIG. 3B) were either untreated, or treated with either phosphonacetic acid or gancyclovir at a concentration sufficient to inhibit viral replication (Huang, 1975; Crumpacker, 1996). Two days later these cells were challenged with either anti-Fas antibody+CHX or TNF-α+CHX (FIGS. 3A and 3B). Although nearly all non-infected MRC-5 cells underwent apoptosis, irrespective of the presence or absence of phosphonacetic acid or gancyclovir, a major fraction of cells exposed to HCMV survived the challenge with the apoptotic stimuli in the absence of the viral DNA polymerase inhibitors. Further, a somewhat smaller but still large fraction of cells survived in the presence of the inhibitors. Thus, the insensitivity of HCMV-infected cells to apoptosis was not abolished by these drugs.

Regarding “Bcl-xL: human cellular anti-apoptotic polypeptide”, in the assay on HeLa cells, the “protection of HeLa cells at very low plasmid concentration” value (from here on “protection of HeLa cells”) is “detectable protection” and the “β-gal levels after anti-Fas antibody+CHX treatment” value is “enhanced β-gal levels”. In addition, in assay [1] (4 h anti-Fas antibody plus CHX), the “cleavage of PARP” value was “inhibited”, the cytochrome c release result is listed as “not observed” and the “processing of procaspase 9” value is “inhibited”. Further, the “processing of pro-caspase 8” value in assay [1] (within 4 h of anti-Fas antibody plus CHX) is “processed”. As for `COC(=O)C[C@H](NC(=O)[C@H](C)NC(=O)[C@@H](NC(=O)OCc1ccccc1)C(C)C)C(=O)CF` [Z-VADfmk] (Cbz-Val-Ala-Asp(OMe)-CH2F), the “effect on Fas- and TNF-R1-mediated MRC-5 cell death” value in the assay with MRC-5 cells (caspase inhibitor added with anti-Fas antibody or TNF-α +CHX) is given as “prevented”. As for `C[C@@H]1C[C@@H]([C@H](O)CC2CC(=O)NC(=O)C2)C(=O)[C@@H](C)C1` [CHX, Cycloheximide], in the assay with MRC-5 cells, the “cell death of MRC-5 cells” value was “did not kill cells”. In the case of `Nc1nc(O)c2ncn(COC(CO)CO)c2n1` [gancyclovir], the “effect on insensitivity of HCMV-infected cells to apoptosis” value in assay [2] is “not abolished”. On to TNF-α, for which the “cell death of MRC-5 cells” value in the assay on MRC-5 cells is on record as “died”.

With `O=C(O)CP(=O)(O)O` [phosphonacetic acid], the “effect on insensitivity of HCMV-infected cells to apoptosis” value in assay [2] is on record as “not abolished”.

With “Bcl-2: human anti-apoptotic gene product”, the “protection of HeLa cells” value with HeLa cells is reported as “detectable protection”.

B1: p35: baculovirus anti-apoptotic polypeptide, positive control (protein, UniProt P08160 1-299, looked up)
Early 35 kDa protein: MCVIFPVEIDVSQTIIRDCQVDKQTRELVYINKIMNTQLTKPVLMMFNISGPIRSVTRKNNNLRDRIKSKVDEQFDQLERDYSDQMDGFHDSIKYFKDEHYSVSCQNGSVLKSKFAKILKSHDYTDKKSIEAYEKYCLPKLVDERNDYYVAVCVLKPGFENGSNQVLSFEYNPIGNKVIVPFAHEINDTGLYEYDVVAYVDSVQFDGEQFEEFVQSLILPSSFKNSEKVLYYNEASKNKSMIYKALEFTTESSWGKSEKYNWKIFCNGFIYDKKSKVLYVKLHNVTSALNKNVILNTIK
With B1, in the assay with HeLa cells, the “protection of HeLa cells” value is on record as “detectable protection” and the “β-gal levels after anti-Fas antibody+CHX treatment” value is “enhanced β-gal levels”. Also, the “survival of transfected cells after apoptosis induction” value in the assay with HeLa cells (HeLa cells, 24 h with either TNF-α+CHX or anti-Fas antibody+CHX, X-gal stained cells scored) was “survived”.
